Measurements taken from patent US7250511B2, “Process for the preparation of cyclopenta[g]quinazoline derivatives” (BTG International Limited, priority 2001, dated 2007).

Question: With `C#CCN(c1ccc(C(=O)O)cc1)C1CCc2cc3nc(C)[nH]c(=O)c3cc21` (racemic) [Example 1, 4{N-[(6RS)-2-Methyl-4-oxo-3,4,7,8-tetrahydro-6H-cyclopenta[g]quinazolin-6-yl]-N-(prop-2-ynyl)amino}benzoic acid] as the compound, how does the melting point read?
Answer: The melting point was 305 to 307 °C.

Question: Which melting point does the source give for `C#CCN(c1ccc(C(=O)N[C@@H](CCC(=O)N[C@H](CCC(=O)O)C(=O)O)C(=O)O)cc1)C1CCc2cc3nc(COC)[nH]c(=O)c3cc21` (mixture of isomers) [Example 2, N-{N-{4-[N-((6RS)-2-Methoxymethyl4oxo-3,4,7,8-tetrahydro-6H-cyclopent[g]quinazolin-6-yl)-N-(prop-2-ynyl)amino]-benzoyl}-L-γ-glutamyl}-D-glutamic acid] here?
Answer: Its melting point is 150 to 155 °C.

Question: For `C#CCN(c1ccc(C(=O)N[C@@H](CCC(=O)N[C@H](CCC(=O)O)C(=O)O)C(=O)O)c(F)c1)C1CCc2cc3nc(C)[nH]c(=O)c3cc21` (mixture of isomers) [Example 4, N-{N-{4[N-((6RS)-2-methyl-4-oxo-3,4,7,8-tetra-hydro-6H-cyclopental[g]quinazolin-6-yl)-N-(prop2-ynyl)amino]-2-fluoro-benzoyl}-L-γ-glutamyl}-D-glutamic acid], which melting point is on record?
Answer: The melting point was 175 °C (dec.).

Question: Which melting point does the source give for `C#CCN(c1ccc(C(=O)N[C@@H](CCC(=O)N(C)[C@@H](CCC(=O)O)C(=O)O)C(=O)O)cc1)C1CCc2cc3nc(CO)[nH]c(=O)c3cc21` (mixture of isomers) [Example 5, N-{N-{4-[N-((6RS)-2-hydroxymethyl-4-oxo-3,4,7,8-tetrahydro-6H-cyclopenta[g]quinazolin-6yl)-N-(prop-2-ynyl)amino]-benzoyl}-L-γ-glutamyl}-N-methyl-L-glutamic acid] here?
Answer: The melting point was > 165 °C (dec.).
